Measured values from patent publication US20260083708A1, “IL-17 MODULATORS AND USES THEREOF” (NNOCARE PHARMA INC., priority 2024, published 2026).

Assays:
[1] = molecular target: T1, IL-17AA and IL-17RA (Homo sapiens, UniProt Q16552); assay: Competitive inhibition of human IL-17AA and IL-17RA binding (HTRF); conditions: recombinant IL-17AA (His-tag) and IL-17RA (hFc-tag); read-out: IC50 for Inhibiting IL-AA/IL-RA Binding
T1 construct: purchased Sino Biological 12047-H07B (IL-17AA); 10895-H02H (IL-17RA)
T1 sequence (Q16552 24-155): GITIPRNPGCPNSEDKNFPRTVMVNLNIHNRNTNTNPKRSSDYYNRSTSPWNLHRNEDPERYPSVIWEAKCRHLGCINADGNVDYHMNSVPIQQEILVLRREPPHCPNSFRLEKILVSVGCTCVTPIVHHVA
Procedure, shortened: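 His-IL-17AA (1 nM) premixed 1 h with anti-His-Tb (0.4 nM), and Fc-IL-17RA (1 nM) with anti-IgG-d2 (1 μg/mL); these are pre-mix levels. Compounds, diluted from 10 μM, preincubated 2 h RT with IL-17AA mix; IL-17RA mix then added, 20 min. 665/615 ratio vs no-compound and no-IL-17AA controls; IC50 by 4-parameter fit.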

[2] = system: IL-17AA-induced IL-17 signaling pathway; assay: Inhibition of IL-17AA-induced IL-17 signaling pathway in HEK-Blue IL-17 reporter cells (SEAP); format: cell-based; conditions: Homo sapiens; HEK-Blue IL-17 cells, IL-17AA 2.5 ng/mL, 20 hours; read-out: IC50 for Inhibiting IL-AA Signaling
Procedure, shortened: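 HEK-Blue IL-17 cells (HEK293 expressing human IL-17RA/RC, ACT1 and NF-κB/AP-1-driven SEAP), 10,000/well, pre-incubated with compound (serial dilution from 10 μM) for 1 h at 37 °C, then stimulated with IL-17AA at 2.5 ng/mL final for 20 h. SEAP in supernatant read with Quanti-Blue at 620 nm; IC50 by 4-parameter fit.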

[3] = system: IL-17AF-induced IL-17 signaling pathway; assay: Inhibition of IL-17AF-induced IL-17 signaling pathway; format: cell-based; conditions: Homo sapiens; IL-17AF used instead of IL-17AA; read-out: IC50 for Inhibiting IL-AF Signaling
Procedure, shortened: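 HEK293-derived HEK-Blue IL-17 cells (IL-17RA/RC, ACT1, NF-κB/AP-1-driven SEAP) preincubated 1 hour at 37° C with serially diluted compound from 10 μM, then stimulated with IL-17AF for 20 hours. SEAP read colorimetrically at 620 nm; IC50 from 4-parameter fit of % inhibition.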

SMILES: [2H]C([2H])([2H])C([2H])([2H])C(=O)N[C@@H](c1ncnn1CC1CC1)[C@@H](C)c1ccc(NC(=O)[C@@H](NC(=O)c2nonc2C)C(C2CC2)C2CC2)c(F)c1 [Compound 75, N-((S)-1,1-dicyclopropyl-3-((4-((1R,2S)-1-(1-(cyclopropylmethyl)-1H-1,2,4-triazol-5-yl)-1-(propanamido-2,2,3,3,3-d5)propan-2-yl)-2-fluorophenyl)amino)-3-oxopropan-2-yl)-4-methyl-1,2,5-oxadiazole-3-carboxamide]
- IC50 [1]: 1.1 nM
- IC50 [2]: 6.1 nM
- IC50 [3]: 8.1 nM

SMILES: CCC(=O)N[C@@H](c1ncnn1CC1CC1)[C@@H](C)c1ccc(NC(=O)[C@@H](NC(=O)c2ccnn2CC)C2CCC(=C(F)F)CC2)c(F)c1 (stereo partly drawn) [Compound 77, N-((S)-2-((4-((1R,2S)-1-(1-(cyclopropylmethyl)-1H-1,2,4-triazol-5-yl)-1-propionamidopropan-2-yl)-2-fluorophenyl)amino)-1-(4-(difluoromethylene)cyclohexyl)-2-oxoethyl)-1-ethyl-1H-pyrazole-5-carboxamide]
- IC50 [1]: 5.6 nM
- IC50 [2]: 11 nM
- IC50 [3]: 32 nM

SMILES: CCC(=O)N[C@@H](c1ncnn1CC1CC1)[C@@H](C)c1ccc(NC(=O)[C@@H](NC(=O)c2ccnn2CC)C2CCC3(CC2)CC(F)(F)C3)c(F)c1 [Compound 78, N-((S)-2-((4-((1R,2S)-1-(1-(cyclopropylmethyl)-1H-1,2,4-triazol-5-yl)-1-propionamidopropan-2-yl)-2-fluorophenyl)amino)-1-(2,2-difluorospiro[3.5]nonan-7-yl)-2-oxoethyl)-1-ethyl-1H-pyrazole-5-carboxamide]
- IC50 [1]: 48 nM
- IC50 [2]: 376 nM
- IC50 [3]: 517 nM

SMILES: CCC(=O)N[C@@H](c1ncnn1CCNC1CC1)[C@@H](C)c1ccc(NC(=O)[C@@H](NC(=O)c2nonc2C)C(C2CC2)C2CC2)c(F)c1 [Compound 79, N-((S)-1,1-dicyclopropyl-3-((4-((1R,2S)-1-(1-(2-(cyclopropylamino)ethyl)-1H-1,2,4-triazol-5-yl)-1-propionamidopropan-2-yl)-2-fluorophenyl)amino)-3-oxopropan-2-yl)-4-methyl-1,2,5-oxadiazole-3-carboxamide]
- IC50 [1]: 6 nM
- IC50 [2]: 19 nM
- IC50 [3]: 36 nM

SMILES: CCC(=O)N[C@@H](c1ncn(CCNC2CC2)n1)[C@@H](C)c1ccc(NC(=O)[C@@H](NC(=O)c2nonc2C)C(C2CC2)C2CC2)c(F)c1 [Compound 80, N—((S)-1,1-dicyclopropyl-3-((4-((1R,2S)-1-(1-(2-(cyclopropylamino)ethyl)-1H-1,2,4-triazol-3-yl)-1-propionamidopropan-2-yl)-2-fluorophenyl)amino)-3-oxopropan-2-yl)-4-methyl-1,2,5-oxadiazole-3-carboxamide]
- IC50 [1]: 18 nM
- IC50 [2]: 32 nM
- IC50 [3]: 49 nM

SMILES: CCC(=O)N[C@@H](c1ncn(CC2CC2)n1)[C@@H](C)c1ccc(NC(=O)[C@@H](NC(=O)c2nonc2C)C(C2CC2)C2CC2)c(F)c1 [Compound 81, N-((S)-1,1-dicyclopropyl-3-((4-((1R,2S)-1-(1-(cyclopropylmethyl)-1H-1,2,4-triazol-3-yl)-1-propionamidopropan-2-yl)-2-fluorophenyl)amino)-3-oxopropan-2-yl)-4-methyl-1,2,5-oxadiazole-3-carboxamide]
- IC50 [1]: 4.5 nM
- IC50 [2]: 9.4 nM
- IC50 [3]: 16 nM

SMILES: CCC(=O)N[C@@H](c1ncccc1CC1CC1)[C@@H](C)c1ccc(NC(=O)[C@@H](NC(=O)c2ccnn2CC)C(C2CC2)C2CC2)c(F)c1 [Compound 82, N-((S)-1,1-dicyclopropyl-3-((4-((1R,2S)-1-(3-(cyclopropylmethyl)pyridin-2-yl)-1-propionamidopropan-2-yl)-2-fluorophenyl)amino)-3-oxopropan-2-yl)-1-ethyl-1H-pyrazole-5-carboxamide]
- IC50 [1]: 5.6 nM
- IC50 [2]: 10 nM
- IC50 [3]: 8.4 nM
